Experimental data: ChEMBL document CHEMBL1146078, “Discovery and preclinical studies of (R)-1-(4-(4-fluoro-2-methyl-1H-indol-5-yloxy)-5- methylpyrrolo[2,1-f][1,2,4]triazin-6-yloxy)propan- 2-ol (BMS-540215), an in vivo active potent VEGFR-2 inhibitor” (J Med Chem, 2006)
Each block holds one compound with its values, some of them ahead of it.

Tests used:
[1] = AUC in mice at 50 mg/kg after 4 hrs; format: ADME, organism-based; parameters: time < 4 hr, dose 50 mg/kg; details: mouse, plasma
[2] = Cmax in mice at 50 mg/kg after 4 hrs; format: ADME, organism-based; parameters: dose 50 mg/kg; details: mouse, in vivo
hERG = hERG (Homo sapiens, UniProt Q12809); test: Inhibitory activity against hERG by patch-clamp assay at 1 uM; format: functional
hERG, sequence (Q12809 whole entry): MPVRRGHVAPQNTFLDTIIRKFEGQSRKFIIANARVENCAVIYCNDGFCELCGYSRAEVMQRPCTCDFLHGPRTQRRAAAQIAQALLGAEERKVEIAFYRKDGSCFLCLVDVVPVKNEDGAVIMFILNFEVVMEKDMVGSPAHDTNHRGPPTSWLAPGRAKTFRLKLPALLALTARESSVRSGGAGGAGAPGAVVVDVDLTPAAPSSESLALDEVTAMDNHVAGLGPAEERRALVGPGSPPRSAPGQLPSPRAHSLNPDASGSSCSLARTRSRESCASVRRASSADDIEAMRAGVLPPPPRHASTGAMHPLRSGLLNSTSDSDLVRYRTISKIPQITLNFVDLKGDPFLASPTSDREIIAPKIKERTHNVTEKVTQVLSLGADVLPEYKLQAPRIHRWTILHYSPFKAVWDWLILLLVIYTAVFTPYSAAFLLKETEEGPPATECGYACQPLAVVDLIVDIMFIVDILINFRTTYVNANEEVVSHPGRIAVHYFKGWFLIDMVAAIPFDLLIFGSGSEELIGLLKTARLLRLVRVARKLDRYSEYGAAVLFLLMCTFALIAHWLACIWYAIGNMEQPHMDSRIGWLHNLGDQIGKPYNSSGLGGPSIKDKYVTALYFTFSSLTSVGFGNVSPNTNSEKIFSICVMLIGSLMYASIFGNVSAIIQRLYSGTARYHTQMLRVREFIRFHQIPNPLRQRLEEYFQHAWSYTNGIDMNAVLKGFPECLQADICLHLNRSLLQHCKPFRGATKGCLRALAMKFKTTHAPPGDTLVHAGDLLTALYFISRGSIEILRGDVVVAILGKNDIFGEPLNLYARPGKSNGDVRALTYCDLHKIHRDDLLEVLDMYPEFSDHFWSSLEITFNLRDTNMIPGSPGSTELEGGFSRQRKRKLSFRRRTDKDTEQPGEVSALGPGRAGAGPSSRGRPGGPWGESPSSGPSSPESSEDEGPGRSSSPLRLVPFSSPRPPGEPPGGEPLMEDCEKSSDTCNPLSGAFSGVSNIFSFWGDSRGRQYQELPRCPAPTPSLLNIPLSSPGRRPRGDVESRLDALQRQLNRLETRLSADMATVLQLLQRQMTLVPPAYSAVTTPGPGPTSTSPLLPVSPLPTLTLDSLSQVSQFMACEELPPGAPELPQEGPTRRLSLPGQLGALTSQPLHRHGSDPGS

Cytochrome P450 3A4 = Cytochrome P450 3A4 (Homo sapiens, UniProt P08684); test: Inhibitory activity against CYP3A4
Cytochrome P450 3A4, sequence (P08684 whole entry): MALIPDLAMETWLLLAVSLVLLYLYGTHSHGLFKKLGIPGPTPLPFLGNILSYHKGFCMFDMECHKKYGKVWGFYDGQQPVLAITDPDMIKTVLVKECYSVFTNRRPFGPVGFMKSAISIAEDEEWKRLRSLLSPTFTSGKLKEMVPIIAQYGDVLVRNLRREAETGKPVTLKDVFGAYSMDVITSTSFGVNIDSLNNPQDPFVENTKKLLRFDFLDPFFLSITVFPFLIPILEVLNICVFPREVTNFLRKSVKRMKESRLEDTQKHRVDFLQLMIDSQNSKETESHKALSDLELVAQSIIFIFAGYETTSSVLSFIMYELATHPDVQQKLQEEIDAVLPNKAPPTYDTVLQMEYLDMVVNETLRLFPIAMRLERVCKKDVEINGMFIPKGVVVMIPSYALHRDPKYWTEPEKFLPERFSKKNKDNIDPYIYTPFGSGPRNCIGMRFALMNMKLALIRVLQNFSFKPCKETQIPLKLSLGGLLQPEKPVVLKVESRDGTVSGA

[3] = target: Voltage-gated inwardly rectifying potassium channel KCNH2 (Homo sapiens, UniProt Q12809); test: Inhibitory activity against hERG by patch-clamp assay; format: functional
Voltage-gated inwardly rectifying potassium channel KCNH2, sequence (Q12809 whole entry): as the sequence (Q12809 whole entry) above

[4] = target: Vascular endothelial growth factor receptor 2 (Mus musculus, UniProt P35918); test: Inhibitory activity against Flk1
Vascular endothelial growth factor receptor 2, sequence (P35918 whole entry): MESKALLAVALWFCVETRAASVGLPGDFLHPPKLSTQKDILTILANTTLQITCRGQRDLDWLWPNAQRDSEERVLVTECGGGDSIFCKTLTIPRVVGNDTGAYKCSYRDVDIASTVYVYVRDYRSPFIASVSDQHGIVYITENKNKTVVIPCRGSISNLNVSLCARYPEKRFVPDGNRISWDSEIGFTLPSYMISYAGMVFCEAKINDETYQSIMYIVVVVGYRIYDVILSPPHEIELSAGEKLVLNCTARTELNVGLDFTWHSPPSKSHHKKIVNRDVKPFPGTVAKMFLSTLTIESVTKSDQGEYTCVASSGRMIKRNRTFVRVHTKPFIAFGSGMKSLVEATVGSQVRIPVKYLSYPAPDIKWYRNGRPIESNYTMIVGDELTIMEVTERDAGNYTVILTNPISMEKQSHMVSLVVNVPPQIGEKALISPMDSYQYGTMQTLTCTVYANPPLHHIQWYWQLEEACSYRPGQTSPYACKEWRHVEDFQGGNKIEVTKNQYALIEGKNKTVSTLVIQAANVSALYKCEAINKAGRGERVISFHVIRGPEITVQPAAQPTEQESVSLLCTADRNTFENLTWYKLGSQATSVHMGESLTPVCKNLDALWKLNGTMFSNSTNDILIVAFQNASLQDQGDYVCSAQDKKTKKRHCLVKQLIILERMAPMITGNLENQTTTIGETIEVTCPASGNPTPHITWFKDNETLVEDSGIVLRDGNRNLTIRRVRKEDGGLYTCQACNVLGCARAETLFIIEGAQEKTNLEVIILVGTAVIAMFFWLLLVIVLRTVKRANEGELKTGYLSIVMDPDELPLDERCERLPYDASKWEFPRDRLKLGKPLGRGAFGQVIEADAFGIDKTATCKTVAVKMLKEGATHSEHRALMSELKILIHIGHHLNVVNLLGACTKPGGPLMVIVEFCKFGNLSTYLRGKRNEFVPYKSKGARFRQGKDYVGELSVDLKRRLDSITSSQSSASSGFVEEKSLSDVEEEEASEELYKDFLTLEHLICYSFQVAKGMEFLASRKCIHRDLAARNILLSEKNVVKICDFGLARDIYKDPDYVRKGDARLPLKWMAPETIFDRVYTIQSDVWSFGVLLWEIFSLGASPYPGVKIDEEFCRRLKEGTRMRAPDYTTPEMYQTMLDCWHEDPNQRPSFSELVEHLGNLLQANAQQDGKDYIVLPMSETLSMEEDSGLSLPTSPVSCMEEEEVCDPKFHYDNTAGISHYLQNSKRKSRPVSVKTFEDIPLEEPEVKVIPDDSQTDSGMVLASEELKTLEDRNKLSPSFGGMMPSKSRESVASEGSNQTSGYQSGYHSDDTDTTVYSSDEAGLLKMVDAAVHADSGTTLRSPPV

H3396 [5] = test: Antitumor activity against H3396 cell xenografted in athymic mice at 60 mg/kg; format: functional, Homo sapiens
[6] = AUC in BALB/c mouse at 10 mg/kg, iv after 24 hrs; format: ADME, organism-based; parameters: time < 24 hr, dose 10 mg/kg, route intravenous; details: plasma
[7] = Half life in BALB/c mouse at 10 mg/kg, iv after 24 hrs; format: ADME, organism-based; parameters: dose 10 mg/kg, route intravenous; details: in vivo
[8] = Mean residence time in BALB/c mouse at 10 mg/kg, iv after 24 hrs; format: ADME, organism-based; parameters: dose 10 mg/kg, route intravenous; details: in vivo
[9] = Systemic clearance in BALB/c mouse at 10 mg/kg, iv after 24 hrs; format: ADME, organism-based; parameters: dose 10 mg/kg, route intravenous; details: in vivo
[10] = Volume of distribution in BALB/c mouse at 10 mg/kg, iv after 24 hrs; format: ADME, organism-based; parameters: dose 10 mg/kg, route intravenous; details: in vivo, read-out: Vss
[11] = AUC in BALB/c mouse at 60 mg/kg, po after 24 hrs; format: ADME, organism-based; parameters: time < 24 hr, dose 60 mg/kg, route oral; details: plasma
[12] = Half life in BALB/c mouse at 60 mg/kg, po after 24 hrs; format: ADME, organism-based; parameters: dose 60 mg/kg, route oral; details: in vivo
[13] = Oral bioavailability in BALB/c mouse at 60 mg/kg, po after 24 hrs; format: ADME, organism-based; details: in vivo
H3396 [14] = test: Antitumor activity against H3396 cell xenografted in athymic mice at 90 mg/kg; format: functional, Homo sapiens
[15] = Cmax in rat at 25 mg/kg as solution after 24 hrs; format: ADME, organism-based; parameters: dose 25 mg/kg; details: in vivo
[16] = Cmax in rat at 25 mg/kg as micronized suspension after 24 hrs; format: ADME, organism-based; parameters: dose 25 mg/kg; details: in vivo
[17] = Cmax in rat at 100 mg/kg as micronized suspension after 24 hrs; format: ADME, organism-based; parameters: dose 100 mg/kg; details: in vivo
[18] = Cmax in rat at 200 mg/kg as micronized suspension after 24 hrs; format: ADME, organism-based; parameters: dose 200 mg/kg; details: in vivo
[19] = AUC in rat at 25 mg/kg as solution after 24 hrs; format: ADME, organism-based; parameters: time < 24 hr, dose 25 mg/kg; details: plasma
[20] = AUC in rat at 25 mg/kg as micronized suspension after 24 hrs; format: ADME, organism-based; parameters: time < 24 hr, dose 25 mg/kg; details: plasma
[21] = AUC in rat at 100 mg/kg as micronized suspension after 24 hrs; format: ADME, organism-based; parameters: time < 24 hr, dose 100 mg/kg; details: plasma
[22] = AUC in rat at 200 mg/kg as micronized suspension after 24 hrs; format: ADME, organism-based; parameters: time < 24 hr, dose 200 mg/kg; details: plasma
[23] = Tmax in male BALB/c mice; format: ADME, organism-based; details: mouse, in vivo

SMILES: COC[C@@H](O)COc1cn2ncnc(Oc3ccc4[nH]c(C)cc4c3F)c2c1C
AUC at 4 h [1]: 128 µM·h
Cmax [2]: 41 µM
IC50 (Cytochrome P450 3A4): 1 µM
IC50 [3]: 18 µM

SMILES: Cc1cc2c(F)c(Oc3ncnn4cc(OCCCN5CCCCC5)c(C)c34)ccc2[nH]1
AUC at 4 h [1]: 14 µM·h
Cmax [2]: 4.2 µM
IC50 (Cytochrome P450 3A4): 1 µM
inhibition at 1 µM (hERG): 70%

SMILES: Cc1cc2c(F)c(Oc3ncnn4cc(OCCN5CCC(O)C5)c(C)c34)ccc2[nH]1 (single isomer, unassigned)
AUC at 4 h [1]: 9.9 µM·h
Cmax [2]: 3 µM
inhibition at 1 µM (hERG): 38%

SMILES: Cc1cc2c(F)c(Oc3ncnn4cc(OCCC5CCN(C)CC5)c(C)c34)ccc2[nH]1
AUC at 4 h [1]: 2.2 µM·h
Cmax [2]: 0.7 µM
IC50 (Cytochrome P450 3A4): 0.7 µM

More lines, main results first:

AUC at 4 h [1]: 20.5 µM·h
Cmax [2]: 5.9 µM
SMILES: Cc1cc2c(F)c(Oc3ncnn4cc(OCCCN5CCCC5)c(C)c34)ccc2[nH]1
inhibition at 1 µM (hERG): 66%

AUC at 4 h [1]: 136 µM·h
Cmax [2]: 41 µM
IC50 [4]: 0.089 µM
Ki [4]: 0.028 µM
AUC at 24 h [6]: 49 µM·h
half-life [7]: 2.7 h
MRT [8]: 3.6 h
clearance [9]: 9.3 mL/min/kg
Vd [10]: 2 L/kg
AUC at 24 h [11]: 224 µM·h
half-life [12]: 3.6 h
bioavailability [13]: 88%
Cmax [15]: 6.4 µM
Cmax [16]: 0.55 µM
Cmax [17]: 2.05 µM
Cmax [18]: 1.71 µM
AUC at 24 h [19]: 13.4 µM·h
AUC at 24 h [20]: 3.35 µM·h
AUC at 24 h [21]: 8.43 µM·h
AUC at 24 h [22]: 7.61 µM·h
Tmax [23]: 1 h
SMILES: Cc1cc2c(F)c(Oc3ncnn4cc(OC[C@@H](C)O)c(C)c34)ccc2[nH]1 [BRIVANIB]
IC50 [3]: 18 µM
Activity (H3396 [5]): 85%
Activity (H3396 [14]): 97%

AUC at 4 h [1]: 185 µM·h
Cmax [2]: 57 µM
IC50 (Cytochrome P450 3A4): 17 µM
SMILES: Cc1cc2c(F)c(Oc3ncnn4cc(OCCCS(C)(=O)=O)c(C)c34)ccc2[nH]1
IC50 [3]: 20 µM

AUC at 4 h [1]: 96 µM·h
Cmax [2]: 27 µM
IC50 (Cytochrome P450 3A4): 1 µM
SMILES: Cc1cc2c(F)c(Oc3ncnn4cc(OCCCNS(C)(=O)=O)c(C)c34)ccc2[nH]1

AUC at 4 h [1]: 146 µM·h
Cmax [2]: 56 µM
SMILES: Cc1cc2c(F)c(Oc3ncnn4cc(OC[C@H](C)O)c(C)c34)ccc2[nH]1

AUC at 4 h [1]: 0.2 µM·h
Cmax [2]: 0.2 µM
SMILES: Cc1cc2c(F)c(Oc3ncnn4cc(O)c(C)c34)ccc2[nH]1
